Test results taken from patent US20080182851A1, “ACETYLENE DERIVATIVES AS STEAROYL COA DESATURASE INHIBITORS” (Glenmark Pharmaceuticals S.A., priority 2006, published 2008).

Target: T1, human SCD1 enzyme (Homo sapiens, UniProt O00767)
T1 sequence (O00767 1-359): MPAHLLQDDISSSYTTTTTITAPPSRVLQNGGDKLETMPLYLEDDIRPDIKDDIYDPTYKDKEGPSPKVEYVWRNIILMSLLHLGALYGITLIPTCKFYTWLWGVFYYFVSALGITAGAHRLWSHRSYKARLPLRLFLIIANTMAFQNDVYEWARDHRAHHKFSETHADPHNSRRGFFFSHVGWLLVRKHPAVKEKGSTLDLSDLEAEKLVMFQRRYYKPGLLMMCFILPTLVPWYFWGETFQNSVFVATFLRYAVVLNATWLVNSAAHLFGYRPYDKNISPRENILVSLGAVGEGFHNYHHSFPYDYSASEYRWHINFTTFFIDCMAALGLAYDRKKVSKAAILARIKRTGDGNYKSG
Assay: Tritiated water release assay (conversion of radiolabeled stearoyl-CoA to oleoyl-CoA)
Assay type: biochemical
Settings: 10 μM concentration of test compounds; microsomal SCD1, 3H stearoyl CoA, 37° C. 30 minutes; percent of control reaction; read-out: % Inhibition
Description: The in-vitro activity of the compounds of the present invention against stearoyl coenzyme desaturase was determined by following conversion of radiolabeled-stearoyl-CoA to oleoyl-CoA using human SCD1 enzyme using a previously published assay procedure with some modifications (Barbara R Talamo and Konrad Bloch, Analytical Biochemistry, 1969, 29, 300-304). This assay protocol is only illustrative and is not meant to limit to the scope of the present invention.
In this assay the microsomal SCD1 enzyme desaturates its substrate, Stearoyl CoA (purchased from American Radiochemicals Ltd.) which is tritiated at C9 and C10 positions. Test compounds were dissolved in dimethylsulfoxide and tested at 10 μM final concentration. Before substrate addition, the test compound or standard reference compound (conjugated linoleic acid at 100 μM final concentration) were pre-incubated in reaction buffer with the enzyme for 10 minutes at 30° C. with shaking. Reaction buffer was prepared as described in literature (Obukowicz et al. JPET, 1998, 287, 157-166) except that the MgCl2, ATP (purchased from Sigma) and CoA (purchased from Sigma) concentrations were changed to 4.9 mM, 7.2 mM and 0.54 mM respectively. The desaturation reaction was initiated by addition of 0.5 μCi of ^3H stearoyl CoA and incubated at 37° C. for 30 minutes with shaking. A control reaction was set without any test compound/reference inhibitor to capture maximum enzymatic activity in the assay. Inhibition of enzyme activity was calculated as a percent of this control reaction giving maximum catalysis and the results are given in Table 5.
Table 5: Tritiated water release assay at 10 μM substrate concentration *Conjugated Linoleic acid was used as a reference standard

| inhibition at 10 µM [%] | SMILES |
| --- | --- |
| 92 | CC(=O)Oc1cccc(C#Cc2ccc(N3CCC(Oc4ccccc4F)C3)nn2)c1 (stereo in doubt) [Example 68, 3-(2-{6-[(3S)-3-(2-Fluorophenoxy)azolan-1-yl]-3-pyridazinyl}-1-ethynyl)phenyl acetate] |
| 96 | CC(=O)Oc1ccc(C#Cc2ccc(N3CCC(Oc4ccccc4F)C3)nn2)cc1 (stereo in doubt) [Example 70, 4-[{6-[(3S)-3-(2-Fluorophenoxy)azolan-1-yl]pyridazin-3-yl}ethynyl]phenyl acetate] |
| 95 | Oc1ccc(C#Cc2ccc(N3CCC(Oc4ccccc4F)C3)nn2)cc1 (stereo in doubt) [Example 71, 4-[{6-[(3S)-3-(2-Fluorophenoxy)azolan-1-yl]pyridazin-3-yl}ethynyl]phenol] |
| 36 | O=C(c1ccccc1C(F)(F)F)N1CCN(c2ccc(C#CCO)cn2)CC1 [Example 1, 4-[5-(3-Hydroxy-1-propynyl)-2-pyridyl]piperazino-2-trifluoromethylphenylmethanone] |
| 57 | O=C(c1cc(Cl)ccc1Cl)N1CCN(c2ccc(C#CCO)cn2)CC1 [Example 2, 4-[5-(3-Hydroxy-1-propynyl)-2-pyridyl]piperazino-2,5-dichlorophenylmethanone] |
| 51 | O=C(c1ccccc1C(F)(F)F)N1CCN(c2ccc(C#CCO)nn2)CC1 [Example 3, 4-[6-(3-Hydroxy-1-propynyl)-3-pyridazinyl]piperazino-2-trifluoromethylphenyl-methanone] |
| 22 | CC(C)(O)C#Cc1cnc(N2CCN(C(=O)c3ccccc3C(F)(F)F)CC2)nc1 [Example 4, 4-[5-(3-Hydroxy-3-methyl-1-butynyl)-2-pyrimidinyl]piperazino-2-trifluoromethylphenyl-methanone] |
| 19 | O=C(c1ccccc1C(F)(F)F)N1CCN(c2ccc(C#CC3(O)CCCC3)cn2)CC1 [Example 5, 4-{5-[2-(1-Hydroxycyclopentyl)-1-ethynyl]-2-pyridyl}piperazino-2-trifluoromethyl phenylmethanone] |
| 24 | CCC(O)C#Cc1ccc(N2CCN(C(=O)c3ccccc3C(F)(F)F)CC2)nc1 (centres unmarked) [Example 6, 4-[5-(3-Hydroxy-1-pentynyl)-2-pyridyl]piperazino-2-trifluoromethylphenylmethanone] |
| 0.35 | O=C(c1ccccc1C(F)(F)F)N1CCN(c2ccc(C#CC(O)C34CC5CC(CC(C5)C3)C4)cn2)CC1 (centres unmarked) [Example 7, 4-[5-{3-Hydroxy-3-(1-adamantyl)-1-propynyl}-2-pyridyl]piperazino-2-trifluoromethyl-phenylmethanone] |
| 42 | O=C(c1ccccc1C(F)(F)F)N1CCN(c2ccc(C#CC(O)c3ccccc3)cn2)CC1 (centres unmarked) [Example 8, 4-[5-(3-Hydroxy-3-phenyl-1-propynyl}-2-pyridyl}piperazino-2-trifluoromethylphenyl-methanone] |
| 86 | O=C(c1ccccc1C(F)(F)F)N1CCN(c2ccc(C#CCOC3CCCC3)cn2)CC1 [Example 9, 4-[5-(3-Cyclopentyloxy-1-propynyl)-2-pyridyl]piperazino-2-trifluoromethylphenyl-methanone] |
| 37 | CC(C)(C)c1ccc(OCC#Cc2ccc(N3CCN(C(=O)c4ccccc4C(F)(F)F)CC3)nc2)cc1 [Example 10] |
| 63 | O=C(c1ccccc1C(F)(F)F)N1CCN(c2ccc(C#CCOc3ccc(F)cc3)cn2)CC1 [Example 11, 4-[5-(3-(4-Fluorophenoxy)-1-propynyl)-2-pyridyl]piperazino-2-trifluoromethylphenyl-methanone] |
| 11 | N#Cc1ccc(OCC#Cc2ccc(N3CCN(C(=O)c4ccccc4C(F)(F)F)CC3)nc2)nc1 [Example 12] |
| 92 | O=C(c1ccccc1C(F)(F)F)N1CCN(c2ccc(C#CCOc3ccc(O)cc3)cn2)CC1 [Example 13] |
| 35 | Fc1ccc(OCC#Cc2ccc(N3CCN(c4ccc(C(F)(F)F)cn4)CC3)nc2)cc1 [Example 14, 1-{5-[3-(4-Fluorophenoxy)prop-1-yn-1-yl]-2-pyridyl}-4-(5-trifluoromethylpyridin-2-yl)piperazine] |
| 49 | CC(=O)NCC#Cc1ccc(N2CCN(C(=O)c3ccccc3C(F)(F)F)CC2)nc1 [Example 15, N1-(3-{6-[4-(2-Trifluoromethylbenzoyl)piperazino]-3-pyridyl}-2-propynyl)acetamide] |

| inhibition at 10 µM [%] | SMILES |
| --- | --- |
| 42 | CCCCS(=O)(=O)NCC#Cc1ccc(N2CCN(C(=O)c3ccccc3C(F)(F)F)CC2)nc1 [Example 16, N1-(3-{6-[4-(2-Trifluoromethylbenzoyl)piperazino]-3-pyridyl}-2-propynyl)-1-butane sulfonamide] |
| 40 | CCCC#Cc1ccc(N2CCN(C(=O)c3ccccc3C(F)(F)F)CC2)nc1 [Example 17, 4-[5-(1-Pentynyl)-2-pyridyl]piperazino-2-trifluoromethylphenylmethanone] |
| 26 | CC(C)(C)C#Cc1ccc(N2CCN(C(=O)c3ccccc3C(F)(F)F)CC2)nc1 [Example 18, 4-[5-(3,3-Dimethyl-1-butynyl)-2-pyridyl]piperazino-2-trifluoromethylphenylmethanone] |
| 14 | CC(C)(C)C#Cc1ccc(N2CCN(C(=O)c3cc(Cl)ccc3Cl)CC2)nc1 [Example 19, 2,5-Dichlorophenyl-4-[5-(3,3-dimethyl-1-butynyl)-2-pyridyl]piperazinomethanone] |
| 38 | O=C(c1ccccc1C(F)(F)F)N1CCN(c2ccc(C#Cc3ccccc3)cn2)CC1 [Example 20, 4-[5-(2-Phenyl-1-ethynyl)-2-pyridyl]piperazino-2-trifluoromethylphenylmethanone] |
| 40 | O=C(c1cc(Cl)ccc1Cl)N1CCN(c2ccc(C#Cc3ccccc3)cn2)CC1 [Example 21, 2,5-Dichlorophenyl-4-[5-(2-phenyl-1-ethynyl)-2-pyridyl]piperazinomethanone] |
| 84 | CC(=O)Oc1ccc(C#Cc2ccc(N3CCN(C(=O)c4ccccc4C(F)(F)F)CC3)nc2)cc1 [Example 22] |
| 91 | O=C(c1ccccc1C(F)(F)F)N1CCN(c2ccc(C#Cc3ccc(O)cc3)cn2)CC1 [Example 23, 4-{5-[2-(4-Hydroxyphenyl)-1-ethynyl]-2-pyridyl}piperazino-2-trifluoromethylphenyl methanone] |
| 79 | O=C(c1ccccc1C(F)(F)F)N1CCN(c2ccc(C#Cc3ccc(O)c(F)c3)cn2)CC1 [Example 24, 1-{5-[(3-Fluoro-4-hydroxyphenyl)ethynyl]-2-pyridyl}piperazin-4-yl-(2-trifluoromethylphenyl)methanone] |
| 97 | O=C(c1ccccc1C(F)(F)F)N1CCN(c2ccc(C#Cc3cccc(O)c3)cn2)CC1 [Example 25, 4-{5-[2-(3-Hydroxyphenyl)-1-ethynyl]-2-pyridyl}piperazino-2-trifluoromethylphenyl methanone] |
| 27 | CCOC(=O)COc1cccc(C#Cc2ccc(N3CCN(C(=O)c4ccccc4C(F)(F)F)CC3)nc2)c1 [Example 26, Ethyl-2-[3-(2-{6-[4-(2-trifluoromethylbenzoyl)piperazino]-3-pyridyl}-1-ethynyl)-phenoxy]acetate] |
| 30 | O=C(O)COc1cccc(C#Cc2ccc(N3CCN(C(=O)c4ccccc4C(F)(F)F)CC3)nc2)c1 [Example 27, 2-[3-(2-{6-[4-(2-Trifluoromethylbenzoyl)piperazino]-3-pyridyl}-1-ethynyl)phenoxy]-acetic acid] |
| 98 | O=C(c1cc(Cl)ccc1Cl)N1CCN(c2ccc(C#Cc3cccc(O)c3)cn2)CC1 [Example 28] |
| 24 | CC(=O)Oc1ccccc1C#Cc1ccc(N2CCN(C(=O)c3ccccc3C(F)(F)F)CC2)nc1 [Example 29] |
| 26 | COc1ccc(C#Cc2ccc(N3CCN(C(=O)c4ccccc4C(F)(F)F)CC3)nc2)cc1 [Example 30, 4-{5-[2-(4-Methoxyphenyl)-1-ethynyl]-2-pyridyl}piperazino-2-trifluoromethylphenyl methanone] |
| 21 | COc1cccc(C#Cc2ccc(N3CCN(C(=O)c4cc(Cl)ccc4Cl)CC3)nc2)c1 [Example 31, 2,5-Dichlorophenyl-4-{5-[2-(3-methoxyphenyl)-1-ethynyl]-2-pyridyl}piperazino-methanone] |
| 35 | COC(=O)c1ccc(C#Cc2ccc(N3CCN(C(=O)c4ccccc4C(F)(F)F)CC3)nc2)cc1 [Example 32] |
